Test results as given in ChEMBL document CHEMBL3885881, “DrugMatrix”.

Species on record: Rattus norvegicus
Test: DrugMatrix - Regimen: Daily Repeat
Assay type: toxicity, organism-based, Sprague-Dawley
Set-up: regimen Daily Repeat, gender Male, age 6-8 weeks
Conditions: in vivo, po, route oral GAVAGE, vehicle .5 % CMC; for BASOPHIL / EOSINOPHIL / ERYTHROCYTE COUNT / HEMATOCRIT / LEUKOCYTE COUNT / LYMPHOCYTE / MEAN CORPUSCULAR HEMOGLOBIN / MEAN CORPUSCULAR HEMOGLOBIN CONCENTRATION / MEAN CORPUSCULAR VOLUME / MONOCYTE / NEUTROPHIL / PLATELET COUNT: tissue Blood; for ALANINE AMINOTRANSFERASE / ALBUMIN / ALKALINE PHOSPHATASE / ASPARTATE AMINOTRANSFERASE / BLOOD UREA NITROGEN / CHLORIDE / CHOLESTEROL / CREATININE / GLUCOSE / PHOSPHORUS / POTASSIUM / TOTAL BILIRUBIN / TOTAL PROTEIN: tissue Plasma
[1] = 0 mg/kg, 72 h, dose level Control, time 3 day
[2] = 0 mg/kg, 120 h, dose level Control, time 5 day
[3] = 10 mg/kg, 72 h, dose level Low, time 3 day
[4] = 10 mg/kg, 120 h, dose level Low, time 5 day
[5] = 52 mg/kg, 72 h, dose level High, time 3 day
[6] = 52 mg/kg, 120 h, dose level High, time 5 day

CNCCC(Oc1ccc(C(F)(F)F)cc1)c1ccccc1 (configuration not stated) [FLUOXETINE]
BASOPHIL [1]: 0% | EOSINOPHIL [1]: 0% | ERYTHROCYTE COUNT [1]: 6.34 x10E6/uL | HEMATOCRIT [1]: 37.62% | LEUKOCYTE COUNT [1]: 11.18 x10E3/uL | LYMPHOCYTE [1]: 87.5% | MEAN CORPUSCULAR HEMOGLOBIN [1]: 23.48 pg | MEAN CORPUSCULAR HEMOGLOBIN CONCENTRATION [1]: 39.5 G/DL | MEAN CORPUSCULAR VOLUME [1]: 59.45 fL | MONOCYTE [1]: 1.67% | NEUTROPHIL [1]: 10.83% | PLATELET COUNT [1]: 1074.83 x10E3/uL | ALANINE AMINOTRANSFERASE [1]: 36.5 u/L | ALBUMIN [1]: 3.9 G/DL | ALKALINE PHOSPHATASE [1]: 370.17 u/L | ASPARTATE AMINOTRANSFERASE [1]: 63.17 u/L | BLOOD UREA NITROGEN [1]: 16.83 mg/dL | CHLORIDE [1]: 99.33 MEQ/L | CHOLESTEROL [1]: 64.33 mg/dL | CREATININE [1]: 0.55 mg/dL | GLUCOSE [1]: 173.5 mg/dL | PHOSPHORUS [1]: 10.08 mg/dL | POTASSIUM [1]: 6.23 MEQ/L | TOTAL BILIRUBIN [1]: 0.52 mg/dL | TOTAL PROTEIN [1]: 6.35 G/DL | BASOPHIL [2]: 0% | EOSINOPHIL [2]: 0.17% | ERYTHROCYTE COUNT [2]: 6.12 x10E6/uL | HEMATOCRIT [2]: 37.08% | LEUKOCYTE COUNT [2]: 11.87 x10E3/uL | LYMPHOCYTE [2]: 83.33% | MEAN CORPUSCULAR HEMOGLOBIN [2]: 24.25 pg | MEAN CORPUSCULAR HEMOGLOBIN CONCENTRATION [2]: 39.97 G/DL | MEAN CORPUSCULAR VOLUME [2]: 60.65 fL | MONOCYTE [2]: 1.5% | NEUTROPHIL [2]: 15% | PLATELET COUNT [2]: 1042.83 x10E3/uL | ALANINE AMINOTRANSFERASE [2]: 46 u/L | ALBUMIN [2]: 3.82 G/DL | ALKALINE PHOSPHATASE [2]: 369.5 u/L | ASPARTATE AMINOTRANSFERASE [2]: 65 u/L | BLOOD UREA NITROGEN [2]: 16.33 mg/dL | CHLORIDE [2]: 100.67 MEQ/L | CHOLESTEROL [2]: 57.17 mg/dL | CREATININE [2]: 0.53 mg/dL | GLUCOSE [2]: 163.33 mg/dL | PHOSPHORUS [2]: 9.53 mg/dL | POTASSIUM [2]: 6.27 MEQ/L | TOTAL BILIRUBIN [2]: 0.55 mg/dL | TOTAL PROTEIN [2]: 6.32 G/DL | BASOPHIL [3]: 0% | EOSINOPHIL [3]: 0% | ERYTHROCYTE COUNT [3]: 6.11 x10E6/uL | HEMATOCRIT [3]: 38.43% | LEUKOCYTE COUNT [3]: 11.83 x10E3/uL | LYMPHOCYTE [3]: 84.67% | MEAN CORPUSCULAR HEMOGLOBIN [3]: 24.53 pg | MEAN CORPUSCULAR HEMOGLOBIN CONCENTRATION [3]: 39 G/DL | MEAN CORPUSCULAR VOLUME [3]: 62.8 fL | MONOCYTE [3]: 1.67% | NEUTROPHIL [3]: 13.67% | PLATELET COUNT [3]: 1383.67 x10E3/uL | ALANINE AMINOTRANSFERASE [3]: 32.67 u/L | ALBUMIN [3]: 4 G/DL | ALKALINE PHOSPHATASE [3]: 373.67 u/L | ASPARTATE AMINOTRANSFERASE [3]: 53 u/L | BLOOD UREA NITROGEN [3]: 15.67 mg/dL | CHLORIDE [3]: 99.33 MEQ/L | CHOLESTEROL [3]: 78 mg/dL | CREATININE [3]: 0.5 mg/dL | GLUCOSE [3]: 162 mg/dL | PHOSPHORUS [3]: 11 mg/dL | POTASSIUM [3]: 5.93 MEQ/L | TOTAL BILIRUBIN [3]: 0.33 mg/dL | TOTAL PROTEIN [3]: 6.6 G/DL | BASOPHIL [4]: 0% | EOSINOPHIL [4]: 0.33% | ERYTHROCYTE COUNT [4]: 6.65 x10E6/uL | HEMATOCRIT [4]: 39.33% | LEUKOCYTE COUNT [4]: 11.3 x10E3/uL | LYMPHOCYTE [4]: 91% | MEAN CORPUSCULAR HEMOGLOBIN [4]: 23.1 pg | MEAN CORPUSCULAR HEMOGLOBIN CONCENTRATION [4]: 39.1 G/DL | MEAN CORPUSCULAR VOLUME [4]: 59.13 fL | MONOCYTE [4]: 0.67% | NEUTROPHIL [4]: 8% | PLATELET COUNT [4]: 1162.33 x10E3/uL | ALANINE AMINOTRANSFERASE [4]: 35 u/L | ALBUMIN [4]: 3.83 G/DL | ALKALINE PHOSPHATASE [4]: 381 u/L | ASPARTATE AMINOTRANSFERASE [4]: 55 u/L | BLOOD UREA NITROGEN [4]: 13.67 mg/dL | CHLORIDE [4]: 97.67 MEQ/L | CHOLESTEROL [4]: 67.67 mg/dL | CREATININE [4]: 0.57 mg/dL | GLUCOSE [4]: 169 mg/dL | PHOSPHORUS [4]: 12.13 mg/dL | POTASSIUM [4]: 6.2 MEQ/L | TOTAL BILIRUBIN [4]: 0.43 mg/dL | TOTAL PROTEIN [4]: 6.3 G/DL | BASOPHIL [5]: 0% | EOSINOPHIL [5]: 0.33% | ERYTHROCYTE COUNT [5]: 6.76 x10E6/uL | HEMATOCRIT [5]: 40.83% | LYMPHOCYTE [5]: 90% | MEAN CORPUSCULAR HEMOGLOBIN [5]: 24.27 pg | MEAN CORPUSCULAR HEMOGLOBIN CONCENTRATION [5]: 40.07 G/DL | MEAN CORPUSCULAR VOLUME [5]: 60.57 fL | MONOCYTE [5]: 1% | NEUTROPHIL [5]: 8.67% | PLATELET COUNT [5]: 1353.67 x10E3/uL | ALANINE AMINOTRANSFERASE [5]: 23.67 u/L | ALBUMIN [5]: 3.93 G/DL | ALKALINE PHOSPHATASE [5]: 317 u/L | ASPARTATE AMINOTRANSFERASE [5]: 55.67 u/L | BLOOD UREA NITROGEN [5]: 14.67 mg/dL | CHLORIDE [5]: 97.67 MEQ/L | CHOLESTEROL [5]: 88.33 mg/dL | CREATININE [5]: 0.63 mg/dL | GLUCOSE [5]: 135.67 mg/dL | POTASSIUM [5]: 6.83 MEQ/L | TOTAL BILIRUBIN [5]: 0.47 mg/dL | BASOPHIL [6]: 0% | EOSINOPHIL [6]: 0% | ERYTHROCYTE COUNT [6]: 7.1 x10E6/uL | HEMATOCRIT [6]: 41.93% | LEUKOCYTE COUNT [6]: 12.47 x10E3/uL | LYMPHOCYTE [6]: 88.67% | MEAN CORPUSCULAR HEMOGLOBIN [6]: 23.53 pg | MEAN CORPUSCULAR HEMOGLOBIN CONCENTRATION [6]: 39.7 G/DL | MEAN CORPUSCULAR VOLUME [6]: 59.33 fL | MONOCYTE [6]: 0.33% | NEUTROPHIL [6]: 11% | PLATELET COUNT [6]: 1164.33 x10E3/uL | ALANINE AMINOTRANSFERASE [6]: 37 u/L | ALBUMIN [6]: 3.8 G/DL | ALKALINE PHOSPHATASE [6]: 263.33 u/L | ASPARTATE AMINOTRANSFERASE [6]: 65.67 u/L | BLOOD UREA NITROGEN [6]: 13.67 mg/dL | CHLORIDE [6]: 98.33 MEQ/L | CHOLESTEROL [6]: 79.67 mg/dL | CREATININE [6]: 0.6 mg/dL | GLUCOSE [6]: 142.33 mg/dL | PHOSPHORUS [6]: 12.27 mg/dL | POTASSIUM [6]: 6.23 MEQ/L | TOTAL BILIRUBIN [6]: 0.4 mg/dL | TOTAL PROTEIN [6]: 6.3 G/DL
